Experimental data as given in US20250066366A1, “Crystal form of isobutyrate nucleoside compound, and preparation method” (Shenzhen AntiV Pharma Co., Ltd., priority 2021, published 2025).
In brackets after ≈: the same amount, converted by molar mass. Like-named read-outs stand apart in the source and are kept apart here. Marks after values point to notes of the source that are not given here.

Legend:
Assay type in all cases: physicochemical
[1] = Solid state stability test (XRPD and HPLC); settings: for Purity-1 week (Peak area %): HPLC, initial purity 99.71%; for Crystal-1 week: XRPD
Text: (§1) X-ray powder diffraction patterns were collected on a PANalytical Empyrean X-ray diffractometer of the Netherlands equipped with a transmission-reflection sample stage with an automated 3*15 zero background sample holder. The radiation source used was (Cu, kα, Kα1 (Å): 1.540598; Kα2 (Å): 1.544426; Kα2/Kα1 intensity ratio: 0.50), wherein the voltage was set at 45 KV and the current was set at 40 mA. The beam divergence of the X-rays, i.e. the effective size of the X-ray confinement on the sample, was 6.6 mm. The continuous scanning mode of θ-θ was adopted, and an effective 2θ range of 3° to 40° was obtained. A proper amount of sample was placed at the position of the circular groove of the zero-background sample rack under the environmental condition (about 18° C. to 32° C.), the sample was lightly pressed with a clean glass slide to obtain a flat plane, and the zero-background sample rack was fixed. The samples were scanned at a scan step of 0.013° in the range of 3° to 40° 2θ±0.2° to obtain a traditional X-ray powder diffraction pattern.
The instrument used for liquid chromatography analysis is Agilent HPLC 1260 series, which is used for the analysis of solid-state stability of samples.
A certain amount of crystalline form III of compound A as a sample was placed under conditions of 40° C./75% RH (open) and 60° C. (closed) for one week, and XRPD and HPLC of the sample were tested.

[2] = Grinding experiment of crystalline form III (XRPD after manual grinding); settings: ground manually with mortar and pestle for 5 minutes
Text: as §1
Crystalline form III was ground manually with a mortar and pestle for 5 minutes, and XRPD of the ground solid was tested.

[3] = Solubility test in biological media (SGF, FaSSIF, FeSSIF) and water at 37° C.; settings: for pH (24 h): solution pH after 24 h; for solubility at 0.5 h: read-out: Solubility (mg/mL) 0.5 h; for solubility at 2 h: read-out: Solubility (mg/mL) 2 h; for solubility at 24 h: read-out: Solubility (mg/mL) 24 h
Experimental: Crystalline form III has the highest solubility in SGF (>7 mg/mL). The solubility in pure water, FeSSIF, and FaSSIF were all greater than 1 mg/mL.

[4] = Dynamic water vapor adsorption detection of crystalline form III

Purity-1 week (Peak area %) ([1]; 40° C./75% RH, open, listed as Sample 1): 99.68%
Purity-1 week (Peak area %) ([1]; 40° C./75% RH, open, listed as Sample 2): 99.71%
Crystal-1 week ([1]; 40° C./75% RH, open): No change
Purity-1 week (Peak area %) ([1]; 60° C. & closed, listed as Sample 1): 99.71%
Purity-1 week (Peak area %) ([1]; 60° C. & closed, listed as Sample 2): 99.65%
Crystal-1 week ([1]; 60° C. & closed): No change
physical and chemical stability ([1]; two acceleration conditions (40° C./75% RH open, 60° C. closed) for 14 days): physically and chemically stable
crystalline structure after grinding (XRPD) [2]: did not change
pH (24 h) ([3]; FaSSIF (pH = 6.53)): 6.50
pH (24 h) ([3]; FeSSIF (pH = 4.97)): 4.96
Solubility (mg/mL) ([3]; SGF (pH = 1.20), 0.5 h, 2 h, 24 h, visual observation): >7* mg/mL
pH (24 h) ([3]; SGF (pH = 1.20)): 1.37
change in solution pH after the solubility test ([3]; SGF, FaSSIF, FeSSIF and water): no significant change
pH (24 h) ([3]; Water (pH = 6.67)): 6.43
solubility ([3]; pH 1.2, simulated gastric fluid, thermodynamic from solid, SGF (pH = 1.20), 0.5 h, 2 h, 24 h, visual observation): > 7000 µg/mL
solubility ([3]; pH 4.97, thermodynamic from solid, FeSSIF): > 1000 µg/mL
solubility ([3]; pH 6.53, thermodynamic from solid, FaSSIF): > 1000 µg/mL
solubility ([3]; pH 6.67, thermodynamic from solid, pure water): > 1000 µg/mL
XRPD (24 h) ([3]; solid after 24 h in FaSSIF (pH = 6.53)): Crystalline
XRPD (24 h) ([3]; solid after 24 h in FeSSIF (pH = 4.97)): Crystalline
XRPD (24 h) ([3]; solid after 24 h in Water (pH = 6.67)): Crystalline
solubility at 0.5 h ([3]; thermodynamic from solid, FaSSIF (pH = 6.53), 0.5 h): 1.22 mg/mL (≈ 3.38 mM)
solubility at 2 h ([3]; thermodynamic from solid, FaSSIF (pH = 6.53), 2 h): 1.26 mg/mL (≈ 3.49 mM)
solubility at 24 h ([3]; thermodynamic from solid, FaSSIF (pH = 6.53), 24 h): 1.19 mg/mL (≈ 3.29 mM)
solubility at 0.5 h ([3]; thermodynamic from solid, FeSSIF (pH = 4.97), 0.5 h): 1.63 mg/mL (≈ 4.51 mM)
solubility at 2 h ([3]; thermodynamic from solid, FeSSIF (pH = 4.97), 2 h): 1.66 mg/mL (≈ 4.59 mM)
solubility at 24 h ([3]; thermodynamic from solid, FeSSIF (pH = 4.97), 24 h): 1.68 mg/mL (≈ 4.65 mM)
solubility at 0.5 h ([3]; thermodynamic from solid, Water (pH = 6.67), 0.5 h): 1.11 mg/mL (≈ 3.07 mM)
solubility at 2 h ([3]; thermodynamic from solid, Water (pH = 6.67), 2 h): 1.22 mg/mL (≈ 3.38 mM)
solubility at 24 h ([3]; thermodynamic from solid, Water (pH = 6.67), 24 h): 1.24 mg/mL (≈ 3.43 mM)
weight gain ([4]; 80% RH and 25° C.): less than 0.2%
crystalline form after testing ([4]; after dynamic water vapor adsorption test): did not change
hygroscopicity ([4]; dynamic water vapor adsorption test): does not have hygroscopicity
Compound: CC(C)C(=O)OC[C@H]1O[C@@](C#N)(c2ccc3c(N)ncnn23)[C@H](O)[C@@H]1O [crystalline form III, ((2R,3S,4R,5R)-5-(4-aminopyrrolo[2,1-f][1,2,4]triazin-7-yl)-5-cyano-3,4-dihydroxytetrahydrofuran-2-yl) methyl isobutyrate]
